According to the supplement of paper PMC4862054:
“And” between values parts separate entries of the source, which are not always exact repeats. Equal values may be shown once.

System: MDA-MB-436
Test: normalised viability (% of control), CellTiter-Blue; higher = more viable cells (about 100 = DMSO control)
Details: 1000 nM; incubation time: 72 h
In short: (§1)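 Vehicle (100) and a positive kill control (0) anchored the normalisation of each plate, and Z'-factor was used for quality control. Breast cancer cell lines in 20 µl suspension were incubated 72 h over compound in 5 µl medium in 384-well plates, followed by CellTiter-Blue at 560/590 nm. The value is normalised viability at a single listed concentration of the series.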

Structure (SMILES)	normalised viability
Cc1cn(-c2cc(NC(=O)c3ccc(C)c(Nc4nccc(-c5cccnc5)n4)c3)cc(C(F)(F)F)c2)cn1 [Nilotinib]	75.7% and 76.8%
C=CCN(/C=C1/C(=O)O[C@H](COC)[C@@]2(C)C1=C(O)C(=O)C1=C2[C@H](OC(C)=O)C[C@]2(C)C(=O)CC[C@@H]12)CC=C [PX-866]	90.2%
CC[C@H](CO)Nc1nc(NCc2ccccc2)c2ncn(C(C)C)c2n1 [Roscovitine]	92.7%

Same assay, conditions: 10000 nM; incubation time: 72 h

Structure (SMILES)	normalised viability
COc1c2occc2cc2ccc(=O)oc12 [Methoxsalen]	93.8%
CO[C@@H]1[C@H](N(C)C(=O)c2ccccc2)C[C@H]2O[C@]1(C)n1c3ccccc3c3c4c(c5c6ccccc6n2c5c31)C(=O)NC4 [Midostaurin]	57.2%
CO[C@@]12[C@H](COC(N)=O)C3=C(C(=O)C(C)=C(N)C3=O)N1C[C@@H]1N[C@@H]12 [Mitomycin C]	17.6%
CC1(C)CCC(c2ccc(Cl)cc2)=C(CN2CCN(c3ccc(C(=O)NS(=O)(=O)c4ccc(N[C@H](CCN5CCOCC5)CSc5ccccc5)c(S(=O)(=O)C(F)(F)F)c4)cc3)CC2)C1 [Navitoclax]	71.7%
Cc1cn(-c2cc(NC(=O)c3ccc(C)c(Nc4nccc(-c5cccnc5)n4)c3)cc(C(F)(F)F)c2)cn1 [Nilotinib]	92.5% and 75.2%
C=CCN(/C=C1/C(=O)O[C@H](COC)[C@@]2(C)C1=C(O)C(=O)C1=C2[C@H](OC(C)=O)C[C@]2(C)C(=O)CC[C@@H]12)CC=C [PX-866]	62%
CC[C@H](CO)Nc1nc(NCc2ccccc2)c2ncn(C(C)C)c2n1 [Roscovitine]	79.4%

System: HCC1937
Test: as above
Details: 1 nM; incubation time: 72 h
In short: as §1

Structure (SMILES)	normalised viability
CCNC(=O)c1noc(-c2cc(C(C)C)c(O)cc2O)c1-c1ccc(CN2CCOCC2)cc1 [NVP-AUY922]	58.5%

Same assay, conditions: 10 nM; incubation time: 72 h

Structure (SMILES)	normalised viability
COc1c2occc2cc2ccc(=O)oc12 [Methoxsalen]	68.3%
CO[C@@H]1[C@H](N(C)C(=O)c2ccccc2)C[C@H]2O[C@]1(C)n1c3ccccc3c3c4c(c5c6ccccc6n2c5c31)C(=O)NC4 [Midostaurin]	111%
CO[C@@]12[C@H](COC(N)=O)C3=C(C(=O)C(C)=C(N)C3=O)N1C[C@@H]1N[C@@H]12 [Mitomycin C]	88.4%
CC1(C)CCC(c2ccc(Cl)cc2)=C(CN2CCN(c3ccc(C(=O)NS(=O)(=O)c4ccc(N[C@H](CCN5CCOCC5)CSc5ccccc5)c(S(=O)(=O)C(F)(F)F)c4)cc3)CC2)C1 [Navitoclax]	87.6%
Cc1cn(-c2cc(NC(=O)c3ccc(C)c(Nc4nccc(-c5cccnc5)n4)c3)cc(C(F)(F)F)c2)cn1 [Nilotinib]	86% and 80.5%
C=CCN(/C=C1/C(=O)O[C@H](COC)[C@@]2(C)C1=C(O)C(=O)C1=C2[C@H](OC(C)=O)C[C@]2(C)C(=O)CC[C@@H]12)CC=C [PX-866]	106%
CC[C@H](CO)Nc1nc(NCc2ccccc2)c2ncn(C(C)C)c2n1 [Roscovitine]	83.8%

Same assay, conditions: 100 nM; incubation time: 72 h

Structure (SMILES)	normalised viability
CCNC(=O)c1noc(-c2cc(C(C)C)c(O)cc2O)c1-c1ccc(CN2CCOCC2)cc1 [NVP-AUY922]	24.7%

Same assay, conditions: 1000 nM; incubation time: 72 h

Structure (SMILES)	normalised viability
COc1c2occc2cc2ccc(=O)oc12 [Methoxsalen]	36%
CO[C@@H]1[C@H](N(C)C(=O)c2ccccc2)C[C@H]2O[C@]1(C)n1c3ccccc3c3c4c(c5c6ccccc6n2c5c31)C(=O)NC4 [Midostaurin]	56.5%
CO[C@@]12[C@H](COC(N)=O)C3=C(C(=O)C(C)=C(N)C3=O)N1C[C@@H]1N[C@@H]12 [Mitomycin C]	45.4%
CCNC(=O)c1noc(-c2cc(C(C)C)c(O)cc2O)c1-c1ccc(CN2CCOCC2)cc1 [NVP-AUY922]	30.7%
CC1(C)CCC(c2ccc(Cl)cc2)=C(CN2CCN(c3ccc(C(=O)NS(=O)(=O)c4ccc(N[C@H](CCN5CCOCC5)CSc5ccccc5)c(S(=O)(=O)C(F)(F)F)c4)cc3)CC2)C1 [Navitoclax]	85.8%
Cc1cn(-c2cc(NC(=O)c3ccc(C)c(Nc4nccc(-c5cccnc5)n4)c3)cc(C(F)(F)F)c2)cn1 [Nilotinib]	69.4%
C=CCN(/C=C1/C(=O)O[C@H](COC)[C@@]2(C)C1=C(O)C(=O)C1=C2[C@H](OC(C)=O)C[C@]2(C)C(=O)CC[C@@H]12)CC=C [PX-866]	73.6%
CC[C@H](CO)Nc1nc(NCc2ccccc2)c2ncn(C(C)C)c2n1 [Roscovitine]	105%

Same assay, conditions: 10000 nM; incubation time: 72 h

Structure (SMILES)	normalised viability
COc1c2occc2cc2ccc(=O)oc12 [Methoxsalen]	77.7%
CO[C@@H]1[C@H](N(C)C(=O)c2ccccc2)C[C@H]2O[C@]1(C)n1c3ccccc3c3c4c(c5c6ccccc6n2c5c31)C(=O)NC4 [Midostaurin]	44.9%
CO[C@@]12[C@H](COC(N)=O)C3=C(C(=O)C(C)=C(N)C3=O)N1C[C@@H]1N[C@@H]12 [Mitomycin C]	21.6%
CC1(C)CCC(c2ccc(Cl)cc2)=C(CN2CCN(c3ccc(C(=O)NS(=O)(=O)c4ccc(N[C@H](CCN5CCOCC5)CSc5ccccc5)c(S(=O)(=O)C(F)(F)F)c4)cc3)CC2)C1 [Navitoclax]	85%
Cc1cn(-c2cc(NC(=O)c3ccc(C)c(Nc4nccc(-c5cccnc5)n4)c3)cc(C(F)(F)F)c2)cn1 [Nilotinib]	71.9% and 73.7%
C=CCN(/C=C1/C(=O)O[C@H](COC)[C@@]2(C)C1=C(O)C(=O)C1=C2[C@H](OC(C)=O)C[C@]2(C)C(=O)CC[C@@H]12)CC=C [PX-866]	59.7%
CC[C@H](CO)Nc1nc(NCc2ccccc2)c2ncn(C(C)C)c2n1 [Roscovitine]	77.2%

System: Hs578T
Test: as above
Details: 1 nM; incubation time: 72 h
In short: as §1

Structure (SMILES)	normalised viability
CCNC(=O)c1noc(-c2cc(C(C)C)c(O)cc2O)c1-c1ccc(CN2CCOCC2)cc1 [NVP-AUY922]	110%

Same assay, conditions: 10 nM; incubation time: 72 h

Structure (SMILES)	normalised viability
COc1c2occc2cc2ccc(=O)oc12 [Methoxsalen]	55.3%
CO[C@@H]1[C@H](N(C)C(=O)c2ccccc2)C[C@H]2O[C@]1(C)n1c3ccccc3c3c4c(c5c6ccccc6n2c5c31)C(=O)NC4 [Midostaurin]	129%
CO[C@@]12[C@H](COC(N)=O)C3=C(C(=O)C(C)=C(N)C3=O)N1C[C@@H]1N[C@@H]12 [Mitomycin C]	113%
CC1(C)CCC(c2ccc(Cl)cc2)=C(CN2CCN(c3ccc(C(=O)NS(=O)(=O)c4ccc(N[C@H](CCN5CCOCC5)CSc5ccccc5)c(S(=O)(=O)C(F)(F)F)c4)cc3)CC2)C1 [Navitoclax]	91.8%
Cc1cn(-c2cc(NC(=O)c3ccc(C)c(Nc4nccc(-c5cccnc5)n4)c3)cc(C(F)(F)F)c2)cn1 [Nilotinib]	97.3% and 112%
C=CCN(/C=C1/C(=O)O[C@H](COC)[C@@]2(C)C1=C(O)C(=O)C1=C2[C@H](OC(C)=O)C[C@]2(C)C(=O)CC[C@@H]12)CC=C [PX-866]	120%
